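The compound was tested at five concentrations on cells cultured in 96-well plates, with a 48-hour exposure period. GI50 = concentration required for 50% inhibition of growth. TGI denotes the concentration required for complete inhibition of growth.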
Experiments:
Assay in all cases: inhibition of tumour cell growth, NCI panel, 48 h; in the data active = GI50 below about 0.43 µM; inactive = the rest
[1] = system: SN12C renal
[2] = system: SR leukemia
[3] = system: OVCAR-3 ovarian
[4] = system: LOX IMVI melanoma
[5] = system: HCT-116 colon
[6] = system: PC-3 prostate
[7] = system: SW-620 colon
[8] = system: OVCAR-4 ovarian
[9] = system: ACHN renal
[10] = system: IGROV1 ovarian
[11] = system: HT29 colon
[12] = system: SNB-19 CNS
[13] = system: HOP-62 NSCLC
[14] = system: NCI-H460 lung
[15] = system: HCT-15 colon
[16] = system: SK-OV-3 ovarian
[17] = system: MDA-MB-435
[18] = system: KM12 colon
[19] = system: SK-MEL-5 melanoma
[20] = system: COLO 205 colon
[21] = system: MCF7 breast
[22] = system: A549 NSCLC
[23] = system: RPMI-8226 leukemia
[24] = system: NCI-H226 lung
[25] = system: MALME-3M melanoma
[26] = system: M14 melanoma
[27] = system: CAKI-1 renal
[28] = system: MDA-MB-231 breast
[29] = system: OVCAR-5 ovarian
[30] = system: SF-268 CNS
[31] = system: UO-31 renal
[32] = system: 786-0 renal
[33] = system: EKVX NSCLC
[34] = system: NCI-H23 lung
[35] = system: TK-10 renal
[36] = system: A498 renal
[37] = system: CCRF-CEM leukemia
[38] = system: RXF 393 renal
[39] = system: UACC-257 melanoma
[40] = system: DU-145 prostate
[41] = system: OVCAR-8 ovarian
[42] = system: NCI-H522 lung
[43] = system: SF-295 CNS
[44] = system: T-47D breast
[45] = system: SNB-75 CNS
[46] = system: HCC-2998 colon
[47] = system: U251 CNS
[48] = system: HOP-92 NSCLC
[49] = system: SK-MEL-28 melanoma
[50] = system: MOLT-4 leukemia
[51] = system: NCI/ADR-RES ovarian
[52] = system: UACC-62 melanoma
[53] = system: SK-MEL-2 melanoma
[54] = system: HS 578T breast
[55] = system: K-562 leukemia
[56] = system: BT-549 breast
[57] = system: SF-539 CNS

CCOC(=O)Nc1cc2c(c(N)n1)N=C(c1ccccc1)CN2
18.5 µM: TGI [13]
< 0.0001 µM: TGI [3] | TGI [6] | TGI [17] | TGI [19] | TGI [42]
> 59.5 µM: TGI [12]
27.7 µM: TGI [27] | TGI [29]
> 53 µM: TGI [7]
> 90.5 µM: TGI [44]
31 µM: TGI [45]
0.0445 µM: TGI [46]
13.5 µM: TGI [43]
34.8 µM: TGI [30] | TGI [48]
0.485 µM: TGI [14]
50.4 µM: TGI [39]
21.6 µM: TGI [9]
29.2 µM: TGI [38]
active: GI50 [3] < 0.0001 µM | GI50 [4] < 0.0001 µM | GI50 [5] < 0.0001 µM | GI50 [6] < 0.0001 µM | GI50 [7] < 0.0001 µM | GI50 [9] < 0.0001 µM | GI50 [10] < 0.0001 µM | GI50 [11] < 0.0001 µM | GI50 [12] < 0.0001 µM | GI50 [14] < 0.0001 µM | GI50 [15] < 0.0001 µM | GI50 [16] 0.0207 µM | GI50 [17] < 0.0001 µM | GI50 [18] < 0.0001 µM | GI50 [19] < 0.0001 µM | GI50 [20] < 0.0001 µM | GI50 [21] 0.0232 µM | GI50 [22] < 0.0001 µM | GI50 [23] < 0.0001 µM | GI50 [24] 0.000221 µM | GI50 [25] < 0.0001 µM | GI50 [26] < 0.0001 µM | GI50 [28] < 0.0001 µM | GI50 [30] < 0.0001 µM | GI50 [31] 0.107 µM | GI50 [32] < 0.0001 µM | GI50 [33] < 0.0001 µM | GI50 [34] < 0.0001 µM | GI50 [37] < 0.0001 µM | GI50 [40] < 0.0001 µM | GI50 [42] < 0.0001 µM | GI50 [43] < 0.0001 µM | GI50 [48] < 0.0001 µM
25.9 µM: TGI [32]
49 µM: TGI [18]
18.1 µM: TGI [22]
0.00463 µM: TGI [28]
> 100 µM: TGI [2] | TGI [8] | TGI [41]
20.5 µM: TGI [21]
1.42 µM: TGI [47]
> 60.7 µM: TGI [35]
17.5 µM: TGI [16]
46.6 µM: TGI [33]
0.255 µM: TGI [20]
39.9 µM: TGI [49]
37.8 µM: TGI [1]
22.2 µM: TGI [36]
> 49 µM: TGI [26]
50.8 µM: TGI [25]
32.9 µM: TGI [4]

NS(=O)(=O)c1ccc(-n2nc(-c3ccccc3)cc2-c2cc(O)ccc2O)cc1
63.2 µM: TGI [4]
> 100 µM: TGI [1] | TGI [3] | TGI [5] | TGI [6] | TGI [50] | TGI [7] | TGI [9] | TGI [10] | TGI [11] | TGI [12] | TGI [13] | TGI [14] | TGI [15] | TGI [17] | TGI [18] | TGI [19] | TGI [20] | TGI [21] | TGI [22] | TGI [24] | TGI [51] | TGI [27] | TGI [52] | TGI [30] | TGI [31] | TGI [32] | TGI [33] | TGI [34] | TGI [53] | TGI [54] | TGI [37] | TGI [38] | TGI [55] | TGI [39] | TGI [41] | TGI [56] | TGI [42] | TGI [43] | TGI [44] | TGI [47] | TGI [48] | TGI [49]
72 µM: TGI [28]
80.8 µM: TGI [26]
inactive: GI50 [1] > 100 µM | GI50 [3] > 100 µM | GI50 [4] 27.7 µM | GI50 [5] 40.8 µM | GI50 [6] 77.6 µM | GI50 [50] 8.71 µM | GI50 [7] > 100 µM | GI50 [9] 89.8 µM | GI50 [10] > 100 µM | GI50 [11] 74.8 µM | GI50 [12] > 100 µM | GI50 [13] 90.8 µM | GI50 [14] > 100 µM | GI50 [15] > 100 µM | GI50 [17] 92.1 µM | GI50 [18] 38.5 µM | GI50 [19] > 100 µM | GI50 [20] > 100 µM | GI50 [21] 69.4 µM | GI50 [22] > 100 µM | GI50 [24] > 100 µM | GI50 [26] 31.9 µM | GI50 [51] > 100 µM | GI50 [27] > 100 µM | GI50 [28] 25.6 µM | GI50 [52] 44.9 µM | GI50 [29] 25.3 µM | GI50 [30] > 100 µM | GI50 [31] > 100 µM | GI50 [32] 90.8 µM | GI50 [33] > 100 µM | GI50 [34] 77.1 µM | GI50 [53] > 100 µM | GI50 [35] 35.9 µM | GI50 [54] > 100 µM | GI50 [37] > 100 µM | GI50 [38] > 100 µM | GI50 [55] 40 µM | GI50 [39] 34.4 µM | GI50 [41] > 100 µM | GI50 [56] > 100 µM | GI50 [42] > 100 µM | GI50 [43] > 100 µM | GI50 [44] > 100 µM | GI50 [47] 46.4 µM | GI50 [48] > 100 µM | GI50 [49] 94.3 µM
95.2 µM: TGI [35]
92.6 µM: TGI [29]

O=C(/C=C/c1ccc(Cl)cc1)c1nc2ccccc2[nH]1
33.1 µM: TGI [40]
83.3 µM: TGI [33]
49.1 µM: TGI [3]
16.6 µM: TGI [37]
32.6 µM: TGI [4]
63.4 µM: TGI [11]
53.1 µM: TGI [7]
43.8 µM: TGI [45]
50.4 µM: TGI [20]
25.8 µM: TGI [46]
50.1 µM: TGI [13]
10.1 µM: TGI [27]
50.6 µM: TGI [57]
36.3 µM: TGI [5]
38.9 µM: TGI [44]
30.7 µM: TGI [55]
24 µM: TGI [31]
13.3 µM: TGI [18]
9.04 µM: TGI [21]
71.3 µM: TGI [8]
61.4 µM: TGI [15]
29.6 µM: TGI [32]
36.2 µM: TGI [17]
70.5 µM: TGI [35]
5.18 µM: TGI [23]
> 100 µM: TGI [1] | TGI [6] | TGI [9] | TGI [10] | TGI [12] | TGI [14] | TGI [16] | TGI [19] | TGI [22] | TGI [24] | TGI [25] | TGI [26] | TGI [51] | TGI [28] | TGI [52] | TGI [29] | TGI [30] | TGI [34] | TGI [53] | TGI [36] | TGI [54] | TGI [39] | TGI [41] | TGI [56] | TGI [42] | TGI [43] | TGI [48] | TGI [49]

Reference: PubChem BioAssay (NCI)
